Results from ChEMBL document CHEMBL1201862, “PubChem BioAssay data set” (2004).
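96-well plates; 48 h exposure; 5 concentrations. Endpoints by linear interpolation between flanking doses. Not reached: highest tested concentration assigned. The concentration for 50% growth inhibition is given as GI50.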 Activity calls are given as the source filed them. Cut-off read from the data, not from the text of the source: active = GI50 up to about 1.1 µM and inactive = higher.

Tests used:
Assay in all cases: growth of human tumour cells (NCI), 48 h
[1] = system: MOLT-4
[2] = system: ACHN
[3] = system: HOP-92
[4] = system: RXF 393
[5] = system: LOX IMVI
[6] = system: HT-29
[7] = system: SK-MEL-28
[8] = system: 786-0
[9] = system: TK-10
[10] = system: OVCAR-3
[11] = system: NCI-H23
[12] = system: NCI-H226
[13] = system: OVCAR-4
[14] = system: MDA-N
[15] = system: OVCAR-5
[16] = system: CAKI-1
[17] = system: MDA-MB-231
[18] = system: SK-MEL-2
[19] = system: IGROV-1
[20] = system: PC-3
[21] = system: HOP-62
[22] = system: KM12
[23] = system: M14
[24] = system: COLO 205
[25] = system: MDA-MB-435
[26] = system: UACC-257
[27] = system: UACC-62
[28] = system: SW-620
[29] = system: EKVX
[30] = system: CCRF-CEM
[31] = system: A549
[32] = system: SK-MEL-5
[33] = system: SNB-19
[34] = system: SF-268
[35] = system: U-251
[36] = system: SN12C
[37] = system: NCI-H460
[38] = system: BT-549
[39] = system: NCI-H522
[40] = system: HL-60
[41] = system: SK-OV-3
[42] = system: OVCAR-8
[43] = system: HCT-116
[44] = system: HCC 2998
[45] = system: DU-145
[46] = system: MCF7
[47] = system: NCI/ADR-RES
[48] = system: Hs-578T
[49] = system: SNB-75
[50] = system: UO-31
[51] = system: SF-539
[52] = system: HCT-15
[53] = system: SF-295

Compound: Cc1cccc(C)c1NC(=O)/C(CC(=O)CC(c1ccccc1)c1c(O)c2ccccc2oc1=O)=N/O (stereo not drawn)
- GI50 [1]: > 100 µM (inactive)
- GI50 [2]: > 100 µM (inactive)
- GI50 [3]: 31.3 µM (inactive)
- GI50 [4]: > 100 µM (inactive)
- GI50 [5]: > 100 µM (inactive)
- GI50 [6]: > 100 µM (inactive)
- GI50 [7]: > 100 µM (inactive)
- GI50 [8]: > 100 µM (inactive)
- GI50 [9]: > 100 µM (inactive)
- GI50 [10]: > 100 µM (inactive)
- GI50 [11]: > 100 µM (inactive)
- GI50 [12]: > 100 µM (inactive)
- GI50 [13]: > 100 µM (inactive)
- GI50 [14]: > 100 µM (inactive)
- GI50 [15]: > 100 µM (inactive)
- GI50 [16]: > 100 µM (inactive)
- GI50 [17]: > 100 µM (inactive)
- GI50 [18]: > 100 µM (inactive)
- GI50 [19]: > 100 µM (inactive)
- GI50 [20]: > 100 µM (inactive)
- GI50 [21]: > 100 µM (inactive)
- GI50 [22]: > 100 µM (inactive)
- GI50 [23]: > 100 µM (inactive)
- GI50 [24]: > 100 µM (inactive)
- GI50 [25]: > 100 µM (inactive)
- GI50 [26]: > 100 µM (inactive)
- GI50 [27]: > 100 µM (inactive)
- GI50 [28]: > 100 µM (inactive)
- GI50 [29]: > 100 µM (inactive)
- GI50 [30]: > 100 µM (inactive)
- GI50 [31]: > 100 µM (inactive)
- GI50 [32]: > 100 µM (inactive)
- GI50 [33]: > 100 µM (inactive)
- GI50 [34]: > 100 µM (inactive)
- GI50 [35]: > 100 µM (inactive)
- GI50 [36]: > 100 µM (inactive)
- GI50 [37]: > 100 µM (inactive)
- GI50 [38]: > 100 µM (inactive)
- GI50 [39]: > 100 µM (inactive)
- GI50 [40]: > 100 µM (inactive)
- GI50 [41]: > 100 µM (inactive)
- GI50 [42]: > 100 µM (inactive)
- GI50 [43]: > 100 µM (inactive)
- GI50 [44]: > 100 µM (inactive)
- GI50 [45]: > 100 µM (inactive)
- GI50 [46]: > 100 µM (inactive)
- GI50 [47]: > 100 µM (inactive)
- GI50 [48]: > 100 µM (inactive)
- GI50 [49]: > 100 µM (inactive)
- GI50 [50]: > 100 µM (inactive)
- GI50 [51]: > 100 µM (inactive)
- GI50 [52]: > 100 µM
- GI50 [53]: > 100 µM (inactive)
